Series [1] concerns tamoxifen-induced mice model. Particulars: from week 16 of age; cited from earlier work.
For series [2], the system named is uterus of mice with tamoxifen-induced adenomyosis. The text has this:
Sunitinib is another angiogenesis inhibitor and a highly-fluorescent molecule, therefore it will be used as a model drug to microscopically assess uptake and distribution in uterine tissue after termination.
Intra-uterine delivery of a gel containing slow-release Sunitinib in low dose will also be tested as an alternative treatment for oral Axinitib in mice with tamoxifen-induced adenomyosis.

The subject of series [3] is tamoxifen-induced adenomyosis in CD-1 mice. Nature of the series: Oral axitinib treatment in tamoxifen-induced adenomyosis mouse model. Format: in vivo. The procedure: After validation of the model, this model was used to test treatment with anti-vascular endothelial growth factor receptor 2 (VEGFR-2) tyrosine kinase inhibitor axitinib (A-1107; LC Laboratories). To induce adenomyosis, 108 mice received neonatal tamoxifen treatment and were randomly allocated to receive treatment or placebo. On day 42, anti-angiogenesis treatment commenced by oral axitinib treatment or placebo. Axitinib was dissolved in 0.5% sodium carboxymethylcellulose (CMC) at a dose of 25 mg/kg body weight (dose I) or at a dose of 3 mg/kg (dose II). All animals received treatment by daily oral gavage at 5 μl/g bodyweight with axitinib (dose I/II) or placebo (CMC) for a time period of three weeks. During this period, all animals had daily animal welfare observations, and were weighed at a minimum of three times per week. The experimental groups are depicted in FIG. 1.
The uteri were cut in half, one horn (right/left horn randomized) was fixed in 4% formaldehyde at room temperature for 48 hours.
Uterine tissue was embedded in paraffin and sliced into transverse oriented sections of 5 μm, with three sections of one uterine horn on one microscope slide. […] Paraffin-embedded sections were dewaxed in xylene, rehydrated in 100%, 96%, and 70% ethanol, and washed in PBS (pH 7.4). […] After washing in PBS, aspecific binding was blocked by 3% BSA/PBS for one hour. After adding primary antibodies diluted in 0.5% BSA/PBS, sections were incubated overnight at 4° C. […] After washing with PBS, horseradish peroxidase (HRP)—streptavidin (strep) was added (cat. no. ab6734; 1:200; Dako Cytomation) diluted in 0.5% BSA/PBS, for thirty minutes. The sections were then washed in PBS, afterwards 3,3′-Diaminobenzidine (DAB) was added (60 μl DAB; 1 μl 30% H2O2; 1 mL PBS), for eight minutes.

For series [4], the system named is tamoxifen-induced adenomyosis in a murine model. Nature of the series: Adenomyosis severity index (grade x affected surface area) in tamoxifen-induced adenomyosis murine model. Type of series: in vivo, mice. Particulars: dose II 3 mg/kg, post hoc p<0.05. The text has this: The adenomyosis severity index in tamoxifen-induced adenomyosis in a murine model has been determined based on the abovementioned results of grade of adenomyosis and adenomyosis-affected surface area. Specifically, the grade of adenomyosis (determined on H&E slides as described above) was multiplied by the adenomyosis-affected surface area (determined on vimentin-stained slides). The adenomyosis severity index is the average of all sections analyzed per uterine horn. The adenomyosis severity index was determined for placebo group (CMC-treated mice) and two axitinib-treated groups (dose II—AX3: axitinib 3 mg/kg; dose I—AX25: axitinib 25 mg/kg).

Series [5] concerns angiogenesis-related genes (VEGF-R1, VEGF-R2, VEGF-R3, VEGF-A, VEGF-B, CD31) in mouse uteri. Kind of series: Real-time quantitative PCR uterine gene expression profile after axitinib. Format: in vivo, mice. Particulars: RT-PCR. On the procedure:
To study the efficacy of axitinib treatment at the molecular level, the expression levels of vascular marker CD31 and angiogenic growth factors VEGF-A, VEGF-B, VEGF receptor R1 (VEGF-R1), VEGF-R2, VEGF-R3, placental growth factor PlGF, and collagen were measured. Real-time quantitative PCR was performed in a random selection of uterine specimens exposed to axitinib (dose II, n=7; dose I, n=6) or placebo (CMC, n=7). The expression of each gene was normalized to the household gene cyclophilin A.

Series [6] has as its system uterine adenomyosis in SHN mice. Particulars: cited from earlier work.
The next series deals with CD-1 mice. Kind of series: Validation of tamoxifen-induced mouse adenomyosis model.
The test system of series [7] is human adenomyosis lesions xenografted in mice. Particulars: administered 14 days after xenografting; cited from earlier work.
[8] abbreviates: dose I 25 mg/kg daily oral gavage three weeks.
[9] abbreviates: dose I 25 mg/kg daily oral gavage three weeks, N = 34.
The mark [10] stands for this setting: dose II 3 mg/kg daily oral gavage three weeks.
Where [11] appears, read: dose II 3 mg/kg daily oral gavage three weeks, N = 34.
Where [12] appears, read: tamoxifen 1 mg/kg oral day 2-5 after birth, six weeks, n = 6.
[13] abbreviates: tamoxifen 1 mg/kg, six weeks, n = 6.

As for `O=C(O)/C=C/c1ccc(Cn2ccnc2)cc1` [Ozagrel], the Myometrial infiltration result in series [1] is “suppressed myometrial infiltration”.
As to `CCN(CC)CCNC(=O)c1c(C)[nH]c(/C=C2\C(=O)Nc3ccc(F)cc32)c1C` [Sunitinib], the “Uptake in uterine tissue after intra-uterine injection” value in series [2] (1% and 0.1% of systemic dose, 4 h and 24 h after injection) is given as “uptake throughout the myometrium”. Besides, the “Toxic effects when delivered locally” value in series [2] (mouse, in vivo) is “without any toxic effects”.
On to `CNC(=O)c1ccccc1Sc1ccc2c(/C=C/c3ccccn3)n[nH]c2c1` [Axitinib, axitinib], for which, in series [3] (setting [8]), the “No signs of adenomyosis (% of mice)” value is listed as 11,8% and the “Presented with adenomyosis (% of mice)” value is on record as 88,2%. Besides, in series [3] (setting [9]), the “Adenomyosis No (number of mice)” value was 4; the “Adenomyosis Yes (number of mice)” value is listed as 30; the “Weight end treatment, Mean” value is on record as 29.9 g. Further, in series [3] (dose I 25 mg/kg, N = 34), the “Ectopic glands, median” value stood at 3.0; the “Grade 0 (% of mice)” value is recorded as “(14.7%)”; the “Grade 0 (number of mice)” value is on record as 5; the “Grade 1 (% of mice)” value is given as “(29.4%)”. Besides, in series [3] (dose I 25 mg/kg, N = 34), the “Grade 1 (number of mice)” value is reported as 10, the “Grade 2 (% of mice)” value was “(50.0%)”, the “Grade 2 (number of mice)” value is listed as 17 and the “Grade 3 (% of mice)” value is “(5.9%)”. Moreover, in series [3] (dose I 25 mg/kg, N = 34), the “Grade 3 (number of mice)” value came out at 2; the “Ratio thickest myometrium/transverse uterine diameter, median” value is 0.18; the “Ratio thickest myometrium/uterine wall, median” value was determined as 0.49; the “Ratio thinnest myometrium/uterine wall, median” value is given as 0.21. In addition, in series [3] (dose I 25 mg/kg, N = 34), the “Ratio thinnest/thickest myometrium, median” value is on record as 0.26; the “Spread Diffuse (number of mice)” value turned out to be 18; the “Spread Focal (number of mice)” value amounted to 8; the “Spread None (% of mice)” value is listed as “(14.7%)”. In series [3] (dose I 25 mg/kg, N = 34), the “Spread None (number of mice)” value is 5. Also, in series [3] (dose I + II pooled, N = 68), the “Adenomyosis No (% of mice)” value is on record as “(14.9%)”, the “Adenomyosis No (number of mice)” value was determined as 10, the “Adenomyosis Yes (% of mice)” value is given as “(85.1%)” and the “Adenomyosis Yes (number of mice)” value turned out to be 57. Also, in series [3] (dose I + II pooled, N = 68), the “Ectopic areas, Median” value was found to be 1.3; the “Ectopic glands, median” value is 2.8; the “Grade 0/1 (% of mice)” value is listed as “(40.3%)”; the “Grade 0/1 (number of mice)” value is 27. Besides, in series [3] (dose I + II pooled, N = 68), the “Grade 2/3 (% of mice)” value is on record as “(59.7%)”, the “Grade 2/3 (number of mice)” value is recorded as 40, the “Spread Diffuse (% of mice)” value is “(54.0%)” and the “Spread Diffuse (number of mice)” value is recorded as 34. In series [3] (dose I + II pooled, N = 68), the “Spread Focal (% of mice)” value is reported as “(30.2%)”, the “Spread Focal (number of mice)” value is given as 19, the “Spread None (% of mice)” value is listed as “(15.9%)” and the “Spread None (number of mice)” value was 10. Further, the “Weight end treatment, Mean” value in series [3] (dose I + II pooled, N = 68) is listed as 28.7 g. Further, in series [3] (setting [10]), the “No signs of adenomyosis (% of mice)” value is 14,7% and the “Presented with adenomyosis (% of mice)” value is given as 82,4%. Also, in series [3] (setting [11]), the “Adenomyosis No (number of mice)” value is 5; the “Adenomyosis Yes (number of mice)” value turned out to be 28; the “Weight end treatment, Mean” value is 28.4 g. Further, in series [3] (dose II 3 mg/kg, N = 34), the “Ectopic glands, median” value stood at 2.7; the “Grade 0 (% of mice)” value is “(15.2%)”; the “Grade 0 (number of mice)” value is recorded as 5; the “Grade 1 (% of mice)” value is “(21.2%)”. Further, in series [3] (dose II 3 mg/kg, N = 34), the “Grade 1 (number of mice)” value is reported as 7, the “Grade 2 (% of mice)” value is recorded as “(57.6%)”, the “Grade 2 (number of mice)” value came to 19 and the “Grade 3 (% of mice)” value is on record as “(6.1%)”. In addition, in series [3] (dose II 3 mg/kg, N = 34), the “Grade 3 (number of mice)” value stood at 2; the “Ratio thickest myometrium/transverse uterine diameter, median” value is on record as 0.18; the “Ratio thickest myometrium/uterine wall, median” value is reported as 0.54; the “Ratio thinnest myometrium/uterine wall, median” value came out at 0.19. Moreover, in series [3] (dose II 3 mg/kg, N = 34), the “Ratio thinnest/thickest myometrium, median” value stood at 0.23; the “Spread Diffuse (number of mice)” value came to 16.4; the “Spread Focal (number of mice)” value was 11; the “Spread None (% of mice)” value is reported as “(15.2%)”. Further, the “Spread None (number of mice)” value in series [3] (dose II 3 mg/kg, N = 34) is 5. Moreover, the “Odds ratio, incidence of grade 0/1 vs grade 2/3 adenomyosis, axitinib vs CMC-only” value in series [3] (pooled dose I + II vs placebo, p=0,048) worked out at 1.33. For the same molecule, the “Reduction of adenomyosis severity index compared to placebo-treated mice” value in series [4] is given as 48%. Besides, the “Down-regulation of all VEGF receptors (1-3), as well as VEGF-A and VEGF” value in series [5] (dose I axitinib, p<0.05) is on record as “more than 60%”. Further, in series [5] (dose I axitinib, p=0.06), the “Decrease of expression of endothelial cell marker CD31” value is on record as 85%. For the same molecule, the “Down-regulation of VEGF-R1 expression” value in series [5] (dose II axitinib, p=0.003) is 63%. The “Decrease of expression of endothelial cell marker CD31” value in series [5] (dose II axitinib, p=0.04) was determined as 85%.
In the case of `CO[C@@H]1[C@H](OC(=O)NC(=O)CCl)CC[C@]2(CO2)[C@H]1[C@@]1(C)O[C@@H]1CC=C(C)C` [TNP-470], the “Development of signs of uterine adenomyosis” value in series [6] (treatment from one day after pituitary grafting until week 13) is “did not develop signs of uterine adenomyosis”. The “Mean surface area of blood vessels in the endometrium, relative to control group” value in series [6] (treatment until week 13) is given as 60.5%.
On to `CC/C(=C(\c1ccccc1)c1ccc(OCCN(C)C)cc1)c1ccccc1` [Tamoxifen, tamoxifen], for which the “Fibrosis surrounding the adenomyosis affected areas” value in the series with CD-1 mice (H&E and PTAH staining, tamoxifen-treated group) is reported as “No signs of fibrosis”. Also, the “Weight, Median” value with CD-1 mice (tamoxifen 1 mg/kg oral day 2-5 after birth, sacrificed after six weeks, n = 6) was 25.2. In the series with CD-1 mice (setting [12]), the “Adenomyosis No (% of mice)” value was “(0%)”, the “Adenomyosis No (number of mice)” value was 0, the “Adenomyosis Yes (% of mice)” value is recorded as “(100%)” and the “Adenomyosis Yes (number of mice)” value stood at 6. The “Adenomyosis Yes (% of mice)” value in the series on CD-1 mice (tamoxifen 1 mg/kg oral day 2-5 after birth, six weeks, n = 6, listed as tamoxifen) came to 100%. For the same molecule, in the series with CD-1 mice (setting [13]), the “Ectopic glands, median” value is reported as 7.5; the “Grade 0 (% of mice)” value is recorded as “(0%)”; the “Grade 0 (number of mice)” value is recorded as 0; the “Grade 1 (% of mice)” value is reported as “(0%)”. Moreover, in the series with CD-1 mice (setting [13]), the “Grade 1 (number of mice)” value is listed as 0, the “Grade 2 (% of mice)” value is “(100%)”, the “Grade 2 (number of mice)” value stood at 6 and the “Grade 3 (% of mice)” value is given as “(0%)”. Besides, in the series on CD-1 mice (setting [13]), the “Grade 3 (number of mice)” value came out at 0; the “Grade of adenomyosis developed by all mice” value is “grade 2”; the “Microvessel density, median, Ectopic endometrium” value was found to be 4.8; the “Microvessel density, median, Endometrium” value came to 5.9. In the series with CD-1 mice (setting [13]), the “Microvessel density, median, Myometrium” value is 3.0; the “Ratio thickest myometrium/thickest uterine wall (α-SMA)” value came to 0.43; the “Ratio thinnest myometrium/thickest myometrium (α-SMA)” value is given as 0.19; the “Ratio thinnest myometrium/thinnest uterine wall (α-SMA)” value came out at 0.18. In the series with CD-1 mice (setting [13]), the “Spread Diffuse (% of mice)” value is on record as “(66.7%)”, the “Spread Diffuse (number of mice)” value is on record as 4, the “Spread Focal (% of mice)” value is given as “(33.3%)” and the “Spread Focal (number of mice)” value stood at 2.
On to bevacizumab, for which the “MVD and the expression of VEGF” value in series [7] was “decreased”.

The values are drawn from patent publication US20260000657A1, “ANTI-ANGIOGENIC THERAPY AS TREATMENT FOR BENIGN UTERINE DISORDERS” (STICHTING AMSTERDAM UMC, priority 2022, published 2026).
